According to patent publication US20260174788A1 (priority 2023, published 2026):

Assays:
[1] = Pharmacokinetics of gemcitabine and dFdU in urine and plasma after TAR-200; details: for Mean cumulative excreted amount in urine as percentage of the administered dose: 0-168 hours after TAR-200; for Tmax: human, urine, other: intravesical, 225 mg gemcitabine
[2] = test system: HR NMIBC (CIS with or without papillary disease) unresponsive to prior intravesical BCG therapy; parameters: species or system human; details: in vivo

SMILES	Mean cumulative excreted amount in urine as percentage of the administered dose [1]	Tmax [1] [h]	12-month CR rate, all TAR-200 treated patients [2] [%]	Responders who achieved CR at the 12 weeks disease assessment [2]	effectiveness versus existing standard of care [2]	Mean gemcitabine concentration in urine versus tumoricidal concentration ([1]; after TAR-200 (225 mg gemcitabine)) [µg/mL]
O=c1ccn([C@@H]2O[C@H](CO)[C@@H](O)C2(F)F)c(=O)[nH]1 [dFdU, 2′,2′ difluorodeoxyuridine]	11.1-23.3%	72 to 144				
Nc1ccn([C@@H]2O[C@H](CO)[C@@H](O)C2(F)F)c(=O)n1 [gemcitabine]	36.2-53.8%	48 to 96	64	47 out of 48	nearly two times as effective	> 3
